{"source": "patent US20030215516A1", "about": "“Process for production of crystals of a medicinally effective ingredient, crystals obtained thereby and pharmaceutical preparations containing them” (priority 2002, published 2003)", "key": {"[1]": {"description": "Content Determination according to USP/Ph. Eur. for individual capsules after elution through HPLC with external calibration\n(§1) Column: LiChrosphere 5μ RP-18 encapped, 150×3 mm\n(§2) Eluent: acetonitrile/water=45/55"}, "[2]": {"assay": "Particle size distribution (Sympatec HELOS, dry dispersion)", "assay_type": "physicochemical", "quoted_text": "Particle Size Distribution:\nSympatec HELOS (H0445), dry dispersion system (RODOS), pressure 2 bar"}, "[3]": {"assay": "Active ingredient release from 1 mg capsule / 1 mg tablet", "assay_type": "physicochemical", "conditions": "0.3% SDS in water", "method": "The release values were compared in a test medium, which comprises 0.3% SDS in water, with paddle stirring, 100 rpm.\nActive Ingredient Release:\nActive ingredient release measured in 1000 mL water with 0.3% sodium dodecyl sulfate, 100 rpm\nContent Determination by HPLC with external calibration\nas §1, §2"}, "[4]": {"conditions": "1 mg capsule, microcrystals X50 3.4/X100 25 μm"}, "[5]": {"conditions": "1 mg capsule, microcrystals X50 5.2/X100 30 μm"}, "[6]": {"conditions": "1 mg capsule, microcrystals X50 6.6/X100 43 μm"}, "[7]": {"conditions": "1 mg capsule, microcrystals X50 8.7/X100 43 μm"}, "[8]": {"conditions": "1 mg capsule, microcrystals X50 14.1/X100 87 μm"}, "[9]": {"conditions": "1 mg tablet, microcrystals X50 10.6/X100 73 μm"}, "[10]": {"conditions": "Example 1, spray-dried microcrystals"}, "[11]": {"conditions": "Example 2, primary particle size"}, "[12]": {"conditions": "Example 3, primary particle size"}, "[13]": {"conditions": "after drying on filter (from ethyl acetate suspension)"}, "[14]": {"conditions": "after spray-drying (from ethanol/water suspension)"}, "[15]": {"conditions": "suspension in ethanol/water (90/10) with 10% by weight microcrystalline J956, before drying"}, "[16]": {"conditions": "suspension in ethyl acetate with 14% by weight microcrystalline J956, before drying"}}, "note": "Where two headings read alike, the source gives them in different places. Marks after values point to notes of the source that are not given here."}
{"compound": "CCNC(=O)ON=Cc1ccc(C2CC3(C)C(CCC3(COC)OC)C3CCC4=CC(=O)CCC4=C23)cc1", "note": "(stereo not drawn) [J956, 11β-{4-[(ethylaminocarbonyl)oximinomethyl]phenyl}-17β-methoxy-17α-methoxymethyl-estra-4,9-dien-3-one]", "values": [{"measurement": "CUT value spread: Confidence Interval %", "setting": "[1]; [4]", "result": 2.23, "unit": "%"}, {"measurement": "CUT value spread: RSD, %", "setting": "[1]; [4]", "result": 3.56, "unit": "%"}, {"measurement": "CUT value spread: Confidence Interval %", "setting": "[1]; [5]", "result": 1.20, "unit": "%"}, {"measurement": "CUT value spread: RSD, %", "setting": "[1]; [5]", "result": 2.08, "unit": "%"}, {"measurement": "CUT value spread: Confidence Interval %", "setting": "[1]; [6]", "result": 1.08, "unit": "%"}, {"measurement": "CUT value spread: RSD, %", "setting": "[1]; [6]", "result": 1.57, "unit": "%"}, {"measurement": "CUT value spread: Confidence Interval %", "setting": "[1]; [7]", "result": 0.93, "unit": "%"}, {"measurement": "CUT value spread: RSD, %", "setting": "[1]; [7]", "result": 1.38, "unit": "%"}, {"measurement": "CUT value spread: Confidence Interval %", "setting": "[1]; [8]", "result": 1.77, "unit": "%"}, {"measurement": "CUT value spread: RSD, %", "setting": "[1]; [8]", "result": 2.50, "unit": "%"}, {"measurement": "CUT value spread: Confidence Interval %", "setting": "[1]; [9]", "result": 1.16, "unit": "%"}, {"measurement": "CUT value spread: RSD, %", "setting": "[1]; [9]", "result": 1.70, "unit": "%"}, {"measurement": "Particle size X10", "setting": "[2]; [10]", "result": 1.75, "unit": "μm"}, {"measurement": "Particle size X50", "setting": "[2]; [10]", "result": 6.04, "unit": "μm"}, {"measurement": "Particle size X100", "setting": "[2]; [10]", "result": 36, "unit": "μm"}, {"measurement": "Particle size X10", "setting": "[2]; Example 2, final", "result": 4, "unit": "μm"}, {"measurement": "Particle size X50", "setting": "[2]; Example 2, final", "result": 13, "unit": "μm"}, {"measurement": "Particle size X100", "setting": "[2]; Example 2, final", "result": 73, "unit": "μm"}, {"measurement": "Particle size X10", "setting": "[2]; [11]", "result": 3, "unit": "μm"}, {"measurement": "Particle size X50", "setting": "[2]; [11]", "result": 9, "unit": "μm"}, {"measurement": "Particle size X100", "setting": "[2]; [11]", "result": 61, "unit": "μm"}, {"measurement": "Particle size X10", "setting": "[2]; Example 3, final", "result": 1.4, "unit": "μm"}, {"measurement": "Particle size X50", "setting": "[2]; Example 3, final", "result": 5.4, "unit": "μm"}, {"measurement": "Particle size X100", "setting": "[2]; Example 3, final", "result": 30, "unit": "μm"}, {"measurement": "Particle size X10", "setting": "[2]; [12]", "result": 1.2, "unit": "μm"}, {"measurement": "Particle size X50", "setting": "[2]; [12]", "result": 3.4, "unit": "μm"}, {"measurement": "Particle size X100", "setting": "[2]; [12]", "result": 30, "unit": "μm"}, {"measurement": "average particle diameter (×50)", "setting": "[2]; after dissolution and re-crystallization of 40 percent of the precipitate from 20 percent by weight ethyl acetate solution", "result": 7.8, "unit": "μm"}, {"measurement": "Particle diameter X10", "setting": "[2]; [13]", "result": 2.7, "unit": "μm"}, {"measurement": "Particle diameter X50", "setting": "[2]; [13]", "result": 10.61, "unit": "μm"}, {"measurement": "Particle diameter X90", "setting": "[2]; [13]", "result": 24, "unit": "μm"}, {"measurement": "Particle diameter X100", "setting": "[2]; [13]", "result": 73, "unit": "μm"}, {"measurement": "Particle diameter X10", "setting": "[2]; [14]", "result": 2.25, "unit": "μm"}, {"measurement": "Particle diameter X50", "setting": "[2]; [14]", "result": 8.03, "unit": "μm"}, {"measurement": "Particle diameter X90", "setting": "[2]; [14]", "result": 17, "unit": "μm"}, {"measurement": "Particle diameter X100", "setting": "[2]; [14]", "result": 43, "unit": "μm"}, {"measurement": "increase of the maximum particle size (×100)", "setting": "[2]; during dissolution and re-crystallization of 40 percent of the precipitate from 20 percent by weight ethyl acetate solution", "result": "scarcely measurable"}, {"measurement": "average particle diameter (×50)", "setting": "[2]; precipitated from a 20 percent by weight ethyl acetate solution, before dissolution and re-crystallization", "result": 4.9, "unit": "μm"}, {"measurement": "Particle diameter X10", "setting": "[2]; [15]", "result": 2.11, "unit": "μm"}, {"measurement": "Particle diameter X50", "setting": "[2]; [15]", "result": 8.6, "unit": "μm"}, {"measurement": "Particle diameter X90", "setting": "[2]; [15]", "result": 19, "unit": "μm"}, {"measurement": "Particle diameter X100", "setting": "[2]; [15]", "result": 51, "unit": "μm"}, {"measurement": "Particle diameter X10", "setting": "[2]; [16]", "result": "2.62*** μm"}, {"measurement": "Particle diameter X50", "setting": "[2]; [16]", "result": 10.4, "unit": "μm"}, {"measurement": "Particle diameter X90", "setting": "[2]; [16]", "result": 24, "unit": "μm"}, {"measurement": "Particle diameter X100", "setting": "[2]; [16]", "result": 73, "unit": "μm"}, {"measurement": "RELEASE in %", "setting": "[3]; 1 mg capsule, microcrystals X50 3.4/X100 25 μm, 0 min, paddle 100 rpm", "result": 0, "unit": "%"}, {"measurement": "RELEASE in %", "setting": "[3]; 1 mg capsule, microcrystals X50 3.4/X100 25 μm, 10 min, paddle 100 rpm", "result": 90.7, "unit": "%"}, {"measurement": "RELEASE in %", "setting": "[3]; 1 mg capsule, microcrystals X50 3.4/X100 25 μm, 20 min, paddle 100 rpm", "result": 97.3, "unit": "%"}, {"measurement": "RELEASE in %", "setting": "[3]; 1 mg capsule, microcrystals X50 3.4/X100 25 μm, 30 min, paddle 100 rpm", "result": 98.1, "unit": "%"}, {"measurement": "RELEASE in %", "setting": "[3]; 1 mg capsule, microcrystals X50 3.4/X100 25 μm, 45 min, paddle 100 rpm", "result": 99.9, "unit": "%"}, {"measurement": "RELEASE in %", "setting": "[3]; 1 mg capsule, microcrystals X50 5.2/X100 30 μm, 0 min, paddle 100 rpm", "result": 0, "unit": "%"}, {"measurement": "RELEASE in %", "setting": "[3]; 1 mg capsule, microcrystals X50 5.2/X100 30 μm, 10 min, paddle 100 rpm", "result": 89.8, "unit": "%"}, {"measurement": "RELEASE in %", "setting": "[3]; 1 mg capsule, microcrystals X50 5.2/X100 30 μm, 20 min, paddle 100 rpm", "result": 93.5, "unit": "%"}, {"measurement": "RELEASE in %", "setting": "[3]; 1 mg capsule, microcrystals X50 5.2/X100 30 μm, 30 min, paddle 100 rpm", "result": 93.4, "unit": "%"}, {"measurement": "RELEASE in %", "setting": "[3]; 1 mg capsule, microcrystals X50 5.2/X100 30 μm, 45 min, paddle 100 rpm", "result": 95.6, "unit": "%"}, {"measurement": "RELEASE in %", "setting": "[3]; 1 mg capsule, microcrystals X50 6.6/X100 43 μm, 0 min, paddle 100 rpm", "result": 0, "unit": "%"}, {"measurement": "RELEASE in %", "setting": "[3]; 1 mg capsule, microcrystals X50 6.6/X100 43 μm, 10 min, paddle 100 rpm", "result": 93.2, "unit": "%"}, {"measurement": "RELEASE in %", "setting": "[3]; 1 mg capsule, microcrystals X50 6.6/X100 43 μm, 20 min, paddle 100 rpm", "result": 95.9, "unit": "%"}, {"measurement": "RELEASE in %", "setting": "[3]; 1 mg capsule, microcrystals X50 6.6/X100 43 μm, 30 min, paddle 100 rpm", "result": 96.7, "unit": "%"}, {"measurement": "RELEASE in %", "setting": "[3]; 1 mg capsule, microcrystals X50 6.6/X100 43 μm, 45 min, paddle 100 rpm", "result": 96.8, "unit": "%"}, {"measurement": "RELEASE in %", "setting": "[3]; 1 mg capsule, microcrystals X50 8.7/X100 43 μm, 0 min, paddle 100 rpm", "result": 0, "unit": "%"}, {"measurement": "RELEASE in %", "setting": "[3]; 1 mg capsule, microcrystals X50 8.7/X100 43 μm, 10 min, paddle 100 rpm", "result": 93.5, "unit": "%"}, {"measurement": "RELEASE in %", "setting": "[3]; 1 mg capsule, microcrystals X50 8.7/X100 43 μm, 20 min, paddle 100 rpm", "result": 96.7, "unit": "%"}, {"measurement": "RELEASE in %", "setting": "[3]; 1 mg capsule, microcrystals X50 8.7/X100 43 μm, 30 min, paddle 100 rpm", "result": 98.5, "unit": "%"}, {"measurement": "RELEASE in %", "setting": "[3]; 1 mg capsule, microcrystals X50 8.7/X100 43 μm, 45 min, paddle 100 rpm", "result": 99.7, "unit": "%"}, {"measurement": "RELEASE in %", "setting": "[3]; 1 mg capsule, microcrystals X50 14.1/X100 87 μm, 0 min, paddle 100 rpm", "result": 0, "unit": "%"}, {"measurement": "RELEASE in %", "setting": "[3]; 1 mg capsule, microcrystals X50 14.1/X100 87 μm, 10 min, paddle 100 rpm", "result": 90.2, "unit": "%"}, {"measurement": "RELEASE in %", "setting": "[3]; 1 mg capsule, microcrystals X50 14.1/X100 87 μm, 20 min, paddle 100 rpm", "result": 95.3, "unit": "%"}, {"measurement": "RELEASE in %", "setting": "[3]; 1 mg capsule, microcrystals X50 14.1/X100 87 μm, 30 min, paddle 100 rpm", "result": 96.0, "unit": "%"}, {"measurement": "RELEASE in %", "setting": "[3]; 1 mg capsule, microcrystals X50 14.1/X100 87 μm, 45 min, paddle 100 rpm", "result": 96.3, "unit": "%"}, {"measurement": "RELEASE in %", "setting": "[3]; 1 mg tablet, microcrystals X50 10.6/X100 73 μm, 0 min, paddle, 100 rpm", "result": 0, "unit": "%"}, {"measurement": "RELEASE in %", "setting": "[3]; 1 mg tablet, microcrystals X50 10.6/X100 73 μm, 10 min, paddle, 100 rpm", "result": 73.7, "unit": "%"}, {"measurement": "RELEASE in %", "setting": "[3]; 1 mg tablet, microcrystals X50 10.6/X100 73 μm, 20 min, paddle, 100 rpm", "result": 90.3, "unit": "%"}, {"measurement": "RELEASE in %", "setting": "[3]; 1 mg tablet, microcrystals X50 10.6/X100 73 μm, 30 min, paddle, 100 rpm", "result": 91.85, "unit": "%"}, {"measurement": "RELEASE in %", "setting": "[3]; 1 mg tablet, microcrystals X50 10.6/X100 73 μm, 45 min, paddle, 100 rpm", "result": 96.6, "unit": "%"}]}
